In US20260199500A1, “Camptothecin Derivative, Conjugate Thereof, Preparation Method Therefor and Medical Use Thereof” (priority 2023, published 2026):

Experiments:
[1] = test system: MDA-MB-468 breast cancer cells; assay: Inhibitory activity of compounds on MDA-MB-468 breast cancer cells (CellTiter-Glo); type: cell-based; conditions: IC50 of PY-X (DXD) set to 1; values are ratios of measured IC50 to DXD
Experimental: (§1) On the day of the experiment, the cells were digested with 0.25% trypsin (Gibco, 25200-072), filtered through a 40 μm sieve, diluted with the corresponding medium to a cell density of 1×10^4 cells/mL, and inoculated into a 96-well white cell culture plate (Beyotime, FCP968), with 100 μL of cells added per well. The culture plate was placed in a 37° C. incubator (Thermo 311) containing 5% C02 and incubated for 24 hours. On the second day, the samples to be tested were prepared as a stock solution at a final concentration of 1M in DMSO (Sigma, D1650), then diluted with the corresponding medium to a final concentration of 200 nM, and subjected to four-fold serial dilutions, resulting in a total of 9 concentrations. 100 μL of the diluted sample was added to each well of the 96-well plate. The plate was placed in a 37° C. incubator containing 5% CO2 and incubated for 144 hours. The cell culture plate was then removed, and 100 μL of the cell viability assay reagent (CellTiter-Glo® Luminescent Cell Viability Assay, Promega, G7571) was added to each well. The reaction was carried out in the dark at room temperature for 5 minutes. Luminescence values were read using a microplate reader (TECAN SPARK), and data were processed using Graphpad Prism 7 software.
(§2) PY—Y is referenced in the document (WO2022170971A1); and PY-A is referenced in the document (WO2021148501A1).

[2] = test system: N87 gastric cancer cells; assay: Inhibitory activity of compounds on N87 gastric cancer cells (CellTiter-Glo, 144 h); type: cell-based; conditions: IC50 of PY-X (DXD) set to 1; values are ratios of measured IC50 to DXD; 144 h
Experimental: as §1, §2

[3] = test system: SW1990 (Pancreatic) cells; assay: Inhibition of SW1990 cells by compounds; type: cell-based; conditions: PY-X (DXD) set to 1
Experimental: as §1

[4] = test system: HT-29 (Colon) cells; assay: Inhibition of HT-29 cells by compounds; type: cell-based; conditions: PY-X (DXD) set to 1
Experimental: as §1

[5] = test system: H82 (SCLC) cells; assay: Inhibition of H82 cells by compounds; type: cell-based; conditions: PY-X (DXD) set to 1
Experimental: as §1

[6] = test system: H1650 (NSCLC) cells; assay: Inhibition of H1650 cells by compounds; type: cell-based; conditions: PY-X (DXD) set to 1
Experimental: as §1

[7] = test system: SW1573 (NSCLC) cells; assay: Inhibition of SW1573 cells by compounds; type: cell-based; conditions: PY-X (DXD) set to 1
Experimental: as §1

[8] = test system: A549 (NSCLC) cells; assay: Inhibition of A549 cells by compounds; type: cell-based; conditions: PY-X (DXD) set to 1
Experimental: as §1

[9] = test system: Colo-205 (Colon) cells; assay: Inhibition of Colo-205 cells by compounds; type: cell-based; conditions: PY-X (DXD) set to 1
Experimental: as §1

[10] = test system: PANC-1 (Pancreatic) cells; assay: Inhibition of PANC-1 cells by compounds; type: cell-based; conditions: PY-X (DXD) set to 1
Experimental: as §1

[11] = test system: H1437 (NSCLC) cells; assay: Inhibition of H1437 cells by compounds; type: cell-based; conditions: PY-X (DXD) set to 1
Experimental: as §1

[12] = Log D of small molecules (1-octanol / phosphate buffer pH 2.5 and pH 7.4, LC-MS/MS); type: physicochemical
Experimental: (1) Preparation of 100 mM phosphate buffer (PB) solution at pH 2.5 and pH 7.4 respectively: • a. Preparation of a solution of 100 mM H3PO4 in water: 14.7 M H3PO4 was diluted with water to a concentration of 100 mM H3PO4, and the pH was measured to be approximately 1.8. • b. Preparation of 100 mM NaH2PO4: 5.999 g of NaH2PO4 was dissolved in 500 mL of water and the pH was measured to be approximately 4.5. • c. Preparation of 100 mM Na2HPO4: 7.098 g of Na2HPO4 was dissolved in water to a volume of 500 mL and the pH was measured to be approximately 9.4. • d. Preparation of 100 mM PB (pH 2.5): 15 mL of 100 mM H3PO4 was added to a 50 mL tube, and then pH was adjusted to 2.5±0.05 with 100 mM NaH2PO4. • d. Preparation of 100 mM PB (pH 7.4): 15 mL of 100 mM Na2HPO4 was added to a 50 mL tube, and then pH was adjusted to 7.4±0.05 with 100 mM NaH2PO4.
(2) Saturation of PBs (pH 2.5 and pH 7.4) with 1-octanol: 10 mL of 1-octanol was added to 100 mL of 100 mM PBs (pH 2.5 and pH 7.4), and the mixture was shaken vigorously, and then allowed to stand overnight at room temperature for later use.
(3) Saturation of 1-octanol with PBs (pH 2.5 and pH 7.4): 10 mL of 100 mM PBs (pH 2.5 and pH 7.4) was added to 100 mL of 1-octanol, and the mixture was shaken vigorously, and then allowed to stand overnight at room temperature for later use.
2.1) 2 μL of 10 mM DMSO stock solution of the test compound were dispensed into test tubes, in duplicate.
2.2) 149 μL of PB saturated with 1-octanol (pH 2.5 and 7.4) were added to the tubes.
2.3) 149 μL of PB (pH 2.5 and 7.4) saturated with 1-octanol were added to the corresponding tubes.
2.4) Each tube was vigorously mixed for 2 minutes, then shaken at 800 rpm for 1 hour at room temperature.
2.5) The tubes were centrifuged at 4000 rpm for 5 minutes at room temperature.
2.6) Appropriate volumes of the buffer phase and 1-octanol phase samples were aliquoted.
2.7) These samples were diluted and analyzed using LC-MS/MS without running a calibration curve.
2.8) Data analysis: The log D value of each compound was calculated using the following formula: f

Compound | IC50 on 468 cells, ratio to DXD [1] | IC50 on N87 cells, ratio to DXD [2] | IC50 in SW1990 cells, ratio to DXD [3] | IC50 in HT-29 cells, ratio to DXD [4] | IC50 in H82 cells, ratio to DXD [5] | IC50 in H1650 cells, ratio to DXD [6] | IC50 in SW1573 cells, ratio to DXD [7] | IC50 in A549 cells, ratio to DXD [8] | IC50 in Colo-205 cells, ratio to DXD [9] | IC50 in PANC-1 cells, ratio to DXD [10] | IC50 in H1437 cells, ratio to DXD [11] | Log D2.5 (Oct/buff) Result ([12]; 1-octanol / phosphate buffer pH 2.5) | Log D7.4 (Oct/buff) Result ([12]; 1-octanol / phosphate buffer pH 7.4)
CC[C@@]1(O)C(=O)OCc2c1cc1n(c2=O)Cc2c-1nc1cc(F)c(C)c3c1c2[C@@H](CC(=O)NCCO)CC3 [PY-25B, 2-((1R,9S)-9-9-ethyl-5-fluoro-9-hydroxy-4-methyl-10,13-dioxo-2,3,9,10,13,15-hexahydro-1H,12H-benzo[de]pyrano[3′,4′:6,7]indolizino[1,2-b]quinolin-1-yl)-N-(2-hydroxyethyl)acetamide] | 1.3101 | 2.9428 | – | – | – | – | – | – | – | – | – | – | –
CC[C@@]1(O)C(=O)OCc2c1cc1n(c2=O)Cc2c-1nc1cc(F)c(COC(=O)NCCO)c3c1c2CCC3 [PY-27(10Car), (S)-(9-ethyl-5-fluoro-9-hydroxy-10,13-dioxy-2,3,9,10,13,15-hexahydro-1H,12H-benzo[d]pyrano[3′,4′:6,7]indolizino[1,2-b]quinolin-4-yl)methyl(2-hydroxyethyl)carbamate] | 3.7610 | 3.3500 | – | – | – | – | – | – | – | – | – | – | –
CC[C@@]1(O)C(=O)OCc2c1cc1n(c2=O)Cc2c-1nc1cc(Cl)c(CN)c3c1c2CCC3 [PY-36, (S)-4-(aminomethyl) 5-chloro-9-ethyl-9-hydroxy-1,2,3,9,12,15-hexahydro-10 h,13 h-benzo[de]pyrano[3′,4′:6,7]indolizino[1,2-b]quinolin-10,13-dione] | – | – | 1.3305 | 0.4909 | 1.5585 | 0.8758 | 0.7619 | 0.4500 | 0.9857 | 0.6317 | 1.1187 | – | –
CC[C@@]1(O)C(=O)OCc2c1cc1n(c2=O)Cc2c-1nc1cc(Cl)c(CO)c3c1c2CCC3 [PY-37, (S)-5-chloro-9-ethyl-9-hydroxy-4-(hydroxymethyl)-1,2,3,9,12,15-hexahydro-10 h,13 h-benzo[de]pyrano[3′,4′:6,7]indolizino[1,2-b]quinolin-10,13-dione] | – | – | 0.7777 | 0.4700 | 1.1563 | 0.7310 | 0.6712 | 0.4179 | 0.6449 | 0.3514 | 0.9440 | – | –
CC[C@@]1(O)C(=O)OCc2c1cc1n(c2=O)Cc2c-1nc1ccc(CO)c3c1c2CCC3 [PY-37A, (S)-9-ethyl-9-hydroxy-4-(hydroxymethyl)-1,2,3,9,12,15-hexahydro-10 h,13 h-benzo[de]pyrano[3′,4′:6,7]indolizino[1,2-b]quinolin-10,13-dione] | – | – | 0.2986 | 0.2181 | 0.4153 | 0.2611 | 0.2884 | 0.2044 | 0.2763 | 0.1992 | 0.2619 | – | –
CC[C@@]1(O)C(=O)OCc2c1cc1n(c2=O)Cc2c-1nc1cc(F)c(C)c3c1c2[C@@H](NC(=O)CO)CC3 [PY-X (DXD), exatecan DXD, reference compound] | 1.0000 | 1.0000 | – | – | – | – | – | – | – | – | – | 1.68 | 1.67
(S)-9-ethyl-5-fluoro-9-hydroxy-1,2,3,9,12,15-hexahydro-10H,13H-benzo[de]pyrano[3′,4′: 6,7]indolizino[1,2-b]quinolin-10,13-dione [PY-10B] | 0.4362 | 0.1623 | – | – | – | – | – | – | – | – | – | – | –
